Results as given in patent US8551964B2, “Hsp90 inhibitors with modified toxicity” (The Regents of the University of Colorado, priority 2007, dated 2013).
Values belong to the molecule of their own block, whether it stands above or below them.

What was measured:
[1] = Interaction of BA Hsp90 inhibitors with reduced glutathione (HPLC, LC-MS, [3H] glutathione)
Experimental: GM-glutathione conjugate formation was analyzed by HPLC and LC-MS. Briefly, 50 μM GM, 500 μM NADH, and 5 mM glutathione in the absence and presence of 11.8 μg rh-NQO1 and in the absence or presence of 2 μM ES936, were incubated in 50 mM potassium phosphate buffer, pH 7.4 (1 ml) at room temperature for 5 min. GM-glutathione conjugate formation was analyzed by HPLC at 270 nm (5 min).
Reaction conditions were: 50 μM 17DMAG, 500 μM NADH, and 5 mM glutathione, in the absence and presence of 11.8 μg rhNQO1 and in the absence or presence of 2 μM ES936, were incubated in 50 mM potassium phosphate buffer, pH 7.4 (1 ml) at room temperature for 3 h. 17DMAG-glutathione conjugate formation was analyzed by HPLC at 270 nm (3 h).
Reaction conditions were: 50 μM BA and 5 mM GSH were incubated in 50 mM potassium phosphate buffer, pH 7.4 (1 ml) at room temperature in the absence and presence of 11.8 μg of rhNQO1 and 500 μM NADH. BA-GSH conjugate formation was analyzed by HPLC at 270 nm and further confirmed by LC-MS. The amount of BA glutathione conjugate formation was quantified using [3H] glutathione.

[2] = cited from earlier work; for hepatotoxicity rank within the BA series: series GM, 17AAG, 17DMAG, 17AG, 17AEP-GA
[3] = molecular target: T1, purified human cytochrome P450 reductase (Homo sapiens, UniProt P16435); assay: Redox cycling catalyzed by purified human cytochrome P450 reductase; type: biochemical
T1 sequence (P16435 1-677): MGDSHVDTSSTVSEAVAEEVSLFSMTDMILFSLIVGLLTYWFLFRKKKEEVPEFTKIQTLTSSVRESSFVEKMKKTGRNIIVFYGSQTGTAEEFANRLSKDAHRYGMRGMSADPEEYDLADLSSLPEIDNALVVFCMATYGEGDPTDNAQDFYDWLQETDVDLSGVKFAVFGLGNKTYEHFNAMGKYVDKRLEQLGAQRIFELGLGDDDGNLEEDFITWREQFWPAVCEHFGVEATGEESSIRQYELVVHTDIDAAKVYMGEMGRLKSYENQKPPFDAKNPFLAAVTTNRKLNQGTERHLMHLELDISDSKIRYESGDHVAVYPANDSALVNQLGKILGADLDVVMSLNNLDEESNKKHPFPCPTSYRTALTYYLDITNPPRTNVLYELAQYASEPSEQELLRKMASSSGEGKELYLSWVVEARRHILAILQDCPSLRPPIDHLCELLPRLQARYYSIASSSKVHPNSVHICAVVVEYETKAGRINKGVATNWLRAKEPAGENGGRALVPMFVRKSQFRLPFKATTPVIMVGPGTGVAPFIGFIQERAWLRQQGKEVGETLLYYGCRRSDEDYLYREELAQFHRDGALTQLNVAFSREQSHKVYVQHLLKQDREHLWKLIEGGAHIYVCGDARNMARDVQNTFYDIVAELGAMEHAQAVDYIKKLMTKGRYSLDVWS

[4] = molecular target: T2, NADPH-cytochrome P450 reductase (mouse liver microsomes) (Mus musculus, UniProt P37040); assay: One-electron redox cycling of BAs in mouse liver microsomes (oxygen consumption rate); type: in vitro ADME; conditions: NADPH- or NADH-dependent, 50 μM BA
T2 construct: Using human and mouse liver microsomes and either NADPH or NADH as cofactors; from tissue; host or cells: mouse liver microsomes
T2 sequence (P37040 1-678): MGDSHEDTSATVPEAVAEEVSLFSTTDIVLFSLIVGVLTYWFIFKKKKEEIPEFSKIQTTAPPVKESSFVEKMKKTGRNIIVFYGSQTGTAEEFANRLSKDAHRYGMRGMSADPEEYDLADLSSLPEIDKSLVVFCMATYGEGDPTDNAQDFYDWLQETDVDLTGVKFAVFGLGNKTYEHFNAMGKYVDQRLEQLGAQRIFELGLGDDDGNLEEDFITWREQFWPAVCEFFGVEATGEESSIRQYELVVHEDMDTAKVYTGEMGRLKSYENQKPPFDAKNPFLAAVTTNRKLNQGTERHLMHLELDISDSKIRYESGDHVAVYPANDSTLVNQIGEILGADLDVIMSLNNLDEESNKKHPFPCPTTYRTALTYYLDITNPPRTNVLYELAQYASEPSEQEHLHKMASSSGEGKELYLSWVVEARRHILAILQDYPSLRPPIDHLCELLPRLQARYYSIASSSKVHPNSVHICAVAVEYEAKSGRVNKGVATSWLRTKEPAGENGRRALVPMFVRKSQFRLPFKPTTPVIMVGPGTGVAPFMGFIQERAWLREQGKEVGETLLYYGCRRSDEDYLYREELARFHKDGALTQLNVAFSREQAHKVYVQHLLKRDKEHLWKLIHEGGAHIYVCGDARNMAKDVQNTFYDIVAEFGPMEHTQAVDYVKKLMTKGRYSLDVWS
Experimental: (§1) Using human and mouse liver microsomes and either NADPH or NADH as cofactors, the relative one-electron redox cycling rates of BAs mediated by NADPH-cytochrome P450 reductase were determined by measuring the rates of oxygen consumption. The rates of oxygen consumption and NAD(P)H oxidation were measured as indicators of the relative redox cycling rates of BAs. […] The oxygen consumption rate was measured using a Clark electrode (air tight) over 10 min.

[5] = molecular target: T3, NADPH-cytochrome P450 reductase (human liver microsomes) (Homo sapiens, UniProt P16435); assay: One-electron redox cycling of BAs in human liver microsomes (oxygen consumption rate); type: in vitro ADME; conditions: NADPH- or NADH-dependent, 50 μM BA
T3 construct: Using human and mouse liver microsomes and either NADPH or NADH as cofactors; from tissue; host or cells: human liver microsomes
T3 sequence (P16435 1-677): T1 sequence (P16435 1-677)
Experimental: as §1

[6] = 50 μM BA, 5 mM reduced glutathione, pH 7.4, room temperature

Structure (SMILES): C=CCNC1=C2C[C@@H](C)C[C@H](OC)[C@H](O)[C@@H](C)/C=C(\C)[C@H](OC(N)=O)[C@@H](OC)/C=C\C=C(/C)C(=O)NC(=CC1=O)C2=O [17AAG, 17-(allylamino)-17-demethoxygeldanamycin]
formation of glutathione conjugate (speed, in words) [1, 6]: very slow | hepatotoxicity rank within the BA series [2]: least hepatotoxic

Structure (SMILES): CO[C@H]1/C=C\C=C(/C)C(=O)NC2=CC(=O)C(NCCN3CCCC3)=C(C[C@@H](C)C[C@H](OC)[C@H](O)[C@@H](C)/C=C(\C)[C@@H]1OC(N)=O)C2=O [17AEP-GA, 17-demethoxy-17-[[2-(pyrrolidin-1-yl)ethyl]amino]-geldanamycin]
relative rate of glutathione conjugate formation (rank order in the series) [1, 6]: GM>17DMAG>17AEP-GA>17AAG and 17AG | fraction conjugated with glutathione ([1]; 50 μM BA, 5 mM reduced glutathione, pH 7.4, room temperature, within 10 h): about 90%

Structure (SMILES): CO[C@H]1/C=C\C=C(/C)C(=O)NC2=CC(=O)C(NCCN(C)C)=C(C[C@@H](C)C[C@H](OC)[C@H](O)[C@@H](C)/C=C(\C)[C@@H]1OC(N)=O)C2=O [17DMAG, 17-demthoxy-17-[[2-(dimethylamino)ethyl]amino]-geldanamycin]
17DMAGH2-SG conjugate detection [1, 6]: not detected | relative rate of glutathione conjugate formation (rank order in the series) [1, 6]: GM>17DMAG>17AEP-GA>17AAG and 17AG | 17DMAG-SG conjugate formed ([1]; 50 μM BA, 5 mM reduced glutathione, pH 7.4, room temperature, within 4 h): approximately 47 μM | rate of redox cycling [3]: greatest rate

Now from value to molecule, other results behind:

formation of glutathione conjugate (speed, in words) [1, 6]: very slow | relative rate of glutathione conjugate formation (rank order in the series) [1, 6]: GM>17DMAG>17AEP-GA>17AAG and 17AG
Structure (SMILES): CO[C@H]1/C=C\C=C(/C)C(=O)NC2=CC(=O)C(N)=C(C[C@@H](C)C[C@H](OC)[C@H](O)[C@@H](C)/C=C(\C)[C@@H]1OC(N)=O)C2=O [17AG, 17-(amino)-17-demethoxygeldanamycin]

relative rate of metabolism (one-electron redox cycling, oxygen consumption) [4]: relatively rapid rate | relative rate of glutathione conjugate formation (rank order in the series) ([1]; 50 μM, pH 7.4): GM>17DMAG>17AEP-GA>17AAG and 17AG | GMH2-SG conjugate formed ([1]; 5 min, 50 μM, pH 7.4): approximately 45 μM | relative rate of metabolism (one-electron redox cycling, oxygen consumption) [5]: relatively rapid rate
Structure (SMILES): COC1=C2C[C@@H](C)C[C@H](OC)[C@H](O)[C@@H](C)/C=C(\C)[C@H](OC(N)=O)[C@@H](OC)/C=C\C=C(/C)C(=O)NC(=CC1=O)C2=O [GM, geldanamycin]
hepatotoxicity ([2]; administration, Phase I clinical trials): unacceptable hepatotoxicity | hepatotoxicity rank within the BA series [2]: most hepatotoxic
